Values quoted from earlier work, collected in patent publication US11998629B2, “Method for dyeing keratinous material, comprising the use of an organosilicon compound, an effect pigment and a film-forming polymer” (Henkel AG & Co. KGaA, priority 2019, dated 2024).

Conditions: 25° C.

solubility in water | Compound | further results
 | CCN(Cc1cccc(S(=O)(=O)[O-])c1)c1ccc(C(=C2C=CC(=[N+](CC)Cc3cccc(S(=O)(=O)[O-])c3)C=C2)c2ccccc2S(=O)(=O)[O-])cc1.[Na+].[Na+] [Acid Blue 9] | water solubility: greater than 20 % by weight
more than 7 g/L | O=S(=O)([O-])c1ccc(N=Nc2c(O)ccc3ccccc23)cc1.[Na+] [Acid Orange 7, sodium salt of 4-[(2-hydroxy-1-naphthyl)azo]benzenesulfonate] | 
2.5 mg/mL | Nc1cc(S(=O)(=O)[O-])cc2cc(S(=O)(=O)[O-])c(N=Nc3ccccc3)c(O)c12.[Na+].[Na+] [Acid Red 33, disodium salt of 5-amino-4-hydroxy-3-(phenylazo)-naphthalene-2,7-disulphonate] | 
 | O=C([O-])C1=NN(c2ccc(S(=O)(=O)[O-])cc2)C(=O)C1N=Nc1ccc(S(=O)(=O)[O-])cc1.[Na+].[Na+].[Na+] (stereo not drawn) [Acid Yellow 23, trisodium salt of 4,5-dihydro-5-oxo-1-(4-sulfophenyl)-4-((4-sulfophenyl)azo)-1H-pyrazole-3-carboxylic acid] | solubility in water (in words): readily soluble
20 mg/mL | mixture of the sodium salts of mono- and disulfonic acids of 2-(2-quinolyl)-1H-indene-1,3(2H)-dione [Acid Yellow 3] | 

Compound | solubility in water | further results
O=C([O-])c1c(Cl)c(Cl)c(Cl)c(Cl)c1-c1c2c(Br)cc(=O)c(Br)c-2oc2c(Br)c(O)cc(Br)c12.O=C([O-])c1c(Cl)c(Cl)c(Cl)c(Cl)c1-c1c2c(Br)cc(=O)c(Br)c-2oc2c(Br)c(O)cc(Br)c12.[Na+].[Na+] [Acid Red 92, disodium salt of 3,4,5,6-tetrachloro-2-(1,4,5,8-tetrabromo-6-hydroxy-3-oxoxanthen-9-yl)benzoic acid] | greater than 10 g/L | 
